Series [1] is described as follows: Metabolic stability in rat hepatocytes assessed as hepatic extraction ratio at 1 uM measured up to 60 mins in presence of NADPH by HPLC-MS/MS analysis. In kind it is ADME, cell-based, Hepatocyte. The note with it: read-out: ERH.
Series [2] is described as follows: Metabolic stability in human hepatocytes assessed as hepatic clearance at 1 uM measured up to 60 mins in presence of NADPH by HPLC-MS/MS analysis. The class given is ADME, cell-based, Hepatocyte.
Series [3] in a line: Metabolic stability in human liver microsomes assessed as intrinsic clearance at 1 uM measured up to 60 mins in presence of NADPH by HPLC-MS/MS analysis. In kind it is ADME, Microsome. Conditions: 1 h.
Series [4] is described as follows: Metabolic stability in human hepatocytes assessed as hepatic extraction ratio at 1 uM measured up to 60 mins in presence of NADPH by HPLC-MS/MS analysis. The class given is ADME, cell-based, Hepatocyte. Conditions: read-out: ERH.
Series [5] can be described thus: Metabolic stability in rat hepatocytes assessed as hepatic clearance at 1 uM measured up to 60 mins in presence of NADPH by HPLC-MS/MS analysis. In kind it is ADME, cell-based, Hepatocyte.
Series [6] is described as follows: Metabolic stability in rat liver microsomes assessed as half life at 1 uM measured up to 60 mins in presence of NADPH by HPLC-MS/MS analysis. In kind it is ADME, Microsome. Background: Liver microsomes are a subcellular fraction often used to study metabolism.
Series [7] in a line: Metabolic stability in human liver microsomes assessed as half life at 1 uM measured up to 60 mins in presence of NADPH by HPLC-MS/MS analysis. The class given is ADME, Microsome.
Series [8] can be described thus: Metabolic stability in rat liver microsomes assessed as intrinsic clearance at 1 uM measured up to 60 mins in presence of NADPH by HPLC-MS/MS analysis. Conditions: 1 h. The class given is ADME, Microsome.

Usually half-life stands for how long it takes for the measured level to halve. Turning to `O=C(c1ccc(F)cc1)C1CCN(CCn2c(=O)[nH]c3ccccc3c2=O)CC1` [KETANSERIN], the hepatic extraction ratio at 1 h, 1 µM was determined as 0.81 in series [1] and 0.712 in series [4]. Moreover, the CLhep predicted at 1 µM in series [2] is 14.7 mL/min/kg; in series [5] it was 25 mL/min/kg. Also, the CLH was found to be 0.051 mL/min/g in series [3] and 0.131 mL/min/g in series [8]. Moreover, the half-life at 1 µM is 18.9 min in series [6] and 34 min in series [7].
